Target: T1, MetAP-2 (Mus musculus, UniProt O08663)
T1 construct: from tissue; host or cells: adipose tissue of diet-induced obese mice
Test: ELISA assay of MetAP-2 binding (free MetAP-2) in adipose tissue lysates of dosed diet-induced obese mice
Procedure: Diet-induced obese mice were orally (p.o.) administered fumagillin (3 mg/kg or 10 mg/kg; Medivet), subcutaneously administered (s.c.) TNP-470 (1 mg/kg, 3 mg/kg, 10 mg/kg, or 30 mg/kg; synthesized by standard semi-synthetic processes as described in European Patent EP 0 357 061), or administered a solution of 10% dimethyl sulfoxide (DMSO; control; Sigma-Aldrich). Mice were sacrificed and adipose tissue samples were obtained.
An ELISA assay of MetAP-2 binding was conducted with tissue lysates prepared from the adipose tissue samples. The MetAP-2 ELISA is a quantitative assay to determine the amount of free MetAP-2 in tissue or cell lysates, i.e., MetAP-2 not covalently bound to fumagillin or TNP-470. The assay takes advantage of the fact that biotinylated fumagillin can bind to the catalytic site of the MetAP-2 enzyme only if this site has not already been derivatized by fumagillin or TNP-470. The biotinylated MetAP-2-inhibitor complex was captured on a streptavidin-coated plate and detected with a rabbit anti-MetAP-2 antibody (Zymed Laboratories Inc.). Horseradish peroxidase-conjugated anti-rabbit immunoglobulin G (IgG) was added to detect the MetAP-2 antibody immobilized to the streptavidin-coated plate with its covalently bound biotinylated fumagillin. Tetramethylbenzidine (TMB) substrate was added and the reaction was stopped by addition of sulfuric acid. Analysis was performed by determining absorption at 450 nm. Human recombinant MetAP-2 (R&D Systems), pre-bound to biotinylated fumagillin, was used to generate a standard curve.

T1 sequence (O08663 whole entry): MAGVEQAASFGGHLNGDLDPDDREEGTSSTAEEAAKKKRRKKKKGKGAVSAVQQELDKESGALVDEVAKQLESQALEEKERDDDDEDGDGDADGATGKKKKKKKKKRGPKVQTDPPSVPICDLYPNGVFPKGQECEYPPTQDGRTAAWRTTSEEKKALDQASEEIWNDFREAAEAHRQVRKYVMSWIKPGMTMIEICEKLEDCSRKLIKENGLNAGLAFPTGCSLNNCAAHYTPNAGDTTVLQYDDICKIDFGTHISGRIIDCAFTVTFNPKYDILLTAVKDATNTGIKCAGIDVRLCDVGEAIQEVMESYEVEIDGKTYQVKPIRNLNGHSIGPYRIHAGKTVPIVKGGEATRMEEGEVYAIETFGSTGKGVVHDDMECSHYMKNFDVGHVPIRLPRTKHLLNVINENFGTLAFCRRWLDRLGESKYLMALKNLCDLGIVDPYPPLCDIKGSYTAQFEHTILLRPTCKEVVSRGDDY

SMILES: CO[C@@H]1[C@H](OC(=O)NC(=O)CCl)CC[C@]2(CO2)[C@H]1[C@@]1(C)O[C@@H]1CC=C(C)C [TNP-470]
- binding to MetAP-2 in adipose tissue (TNP-470 subcutaneously 1, 3, 10 or 30 mg/kg, diet-induced obese mice, FIG. 1): binds MetAP-2 in a dose dependent manner
- binding to MetAP-2 in adipose tissue compared to orally administered fumagillin at the same dosages (s.c. TNP-470 vs p.o. fumagillin, 3 mg/kg and 10 mg/kg): greater binding
